Data taken from paper PMC6057649, “Development of NanoLuc-PEST expressing Leishmania mexicana as a new drug discovery tool for axenic- and intramacrophage-based assays” (PLoS Neglected Tropical Diseases, 2018).

Tested on: NanoLuc-PEST expressing L. mexicana axenic amastigotes
Assay: microbe, parasite or virus in culture
Type: cell-based
Details: for Relative Bioluminescence (%) / viability at 2 µM / viability at 10 µM: 72 hours, relative to DMSO only control, n = 4; for EC50: hit compounds from the axenic amastigote screen, S3 Table, read-out: EC50, Axenic Amastigotes; for viability at 2 µM / viability at 10 µM: Leishmania mexicana, read-out: Relative Bioluminescence (%)

SMILES | Relative Bioluminescence (%) (2 µM compound) | Relative Bioluminescence (%) (10 µM compound) | EC50 | viability at 2 µM (2 µM compound) | viability at 10 µM (10 µM compound)
Cc1cccc(C(=O)Nc2ccnc(N(C)C3CCN(CC(C)C)CC3)c2)c1 [MMV024829] | 74.80% | 69.82% |  |  | 
O=C(Nc1ccc(N2CCNCC2)nc1)c1oc(-c2ccccc2)nc1C(F)(F)F [MMV024937] | 68.74% | 69.28% |  |  | 
CS(=O)(=O)c1cccc(-c2cnc3[nH]cc(-c4ccc(CCC(=O)O)cc4)c3c2)c1 [MMV026020] | 94.58% | 94.82% |  |  | 
Nc1nccc2ccc(Oc3ccncc3)cc12 [MMV026313] | 56.90% | 66.48% |  |  | 
CCn1ncc2c(NC3CCOCC3)c(CNC(=O)c3ccnn3C)c(C)nc21 [MMV026356] | 76.21% | 65.05% |  |  | 
OCc1ccc(-c2cncc(Nc3cccc(Cl)c3)c2)cc1 [MMV026468] | 116.14% | 104.46% |  |  | 
O=C(NCCc1ccccc1)c1cc(-c2cccnc2)cnc1NCC1CC1 [MMV026490] | 92.31% | 60.31% |  |  | 
CC(C)(C)CN1C(=O)C(c2ccccc2)(c2ccccc2)N=C1N [MMV026550] | 91.50% | 87.66% |  |  | 
OCCc1ccc(Nc2nccc(-c3nnc4ccccn34)n2)cc1 [MMV028694] | 24.99% | 3.77% |  |  | 
CC(C)(CN)c1nc(-c2ccc(Cl)c(O)c2)c(-c2ccnc(N)n2)[nH]1 [MMV030734] | 80.21% | 87.08% |  |  | 
CNC(=O)C1Cc2c([nH]c3cc(Cl)ccc23)C2(CCN(CCc3ccccc3)CC2)N1 (stereo not drawn) [MMV031011] | 110.57% | 84.55% |  |  | 
FC(F)(F)c1cccc(-c2nc3c(NCc4ccncc4)nccc3[nH]2)c1 [MMV032967] | 79.58% | 75.35% |  |  | 
O=C1COCc2ccc(Br)cc2N1Cc1ccc(C(F)(F)F)cc1 [MMV032995] | 97.31% | 90.22% |  |  | 
c1ccc(Oc2ccc(-c3cc(N4CCOCC4)n[nH]3)cc2)cc1 [MMV045105] | 73.02% | 44.11% |  |  | 
COc1cc(C(F)(F)F)nc2ccc(C)c(N)c12 [MMV047015] | 86.47% | 82.90% |  |  | 
N#Cc1ccc(-c2ccc(OCC(N)=O)cc2)cc1 [MMV053220] | 105.30% | 82.56% |  |  | 
CC(=O)N1CCc2cc3nc(C)cc(C)c3cc21 [MMV054312] | 120.77% | 116.16% |  |  | 
Cc1cc(C)nc(-n2nc(C)cc2Nc2ccccc2)n1 [MMV062221] | 64.16% | 7.64% |  |  | 
Cc1nn(Cc2ccccc2)c(Cl)c1C(=O)NC1CCCCCC1 [MMV063404] | 86.21% | 79.51% |  |  | 
FC(F)(F)c1nnc2ccc(Cl)nn12 [MMV069458] | 115.05% | 112.41% |  |  | 
O=C1N(Cc2cc3ccccc3s2)CC2CN(Cc3ccccc3)CCN12 (stereo not drawn) [MMV084603] | 70.21% | 61.10% |  |  | 
O=C(Nc1cnc2ccccc2c1)c1cccc(-n2cnnn2)c1 [MMV084864] | 74.64% | 55.81% |  |  | 
COc1cncc(-c2cncc(N3CCN(c4ccncc4)CC3)n2)c1 [MMV085071] | 93.07% | 82.11% |  |  | 
O=C(C(Cc1c[nH]c2ccccc12)NS(=O)(=O)c1ccc(Cl)cc1)N1CCCCC1 (stereo not drawn) [MMV085210] | 65.83% | 73.33% |  |  | 
CCCNC(=O)N1CCC2(CC1)CC(=O)c1cc(C)ccc1O2 [MMV085230] | 100.02% | 105.91% |  |  | 
N#Cc1ccc(-c2cnc(N)c(-c3ccc(C(N)=O)cc3)n2)cc1 [MMV085499] | 98.08% | 54.27% |  |  | 

SMILES | Relative Bioluminescence (%) (2 µM compound) | Relative Bioluminescence (%) (10 µM compound) | EC50 | viability at 2 µM (2 µM compound) | viability at 10 µM (10 µM compound)
CCOC(=O)NC(=O)c1ccsc1NC(=O)c1nc2ccccc2s1 [MMV090930] | 11.16% | -0.77% |  |  | 
O=C(Nc1nnc(-c2ccc(Cl)cc2)o1)c1cccc(C(F)(F)F)c1 [MMV102872] | 0.33% | -0.65% | 810 nM |  | 
CCC(C)NC(=O)c1ccc(NC(=O)C2(c3ccccc3)CCCC2)cc1 (stereo not drawn) [MMV146306] | 97.77% | 40.43% |  |  | 
CCOC(=O)c1c(NC(=O)c2c(F)c(F)c(F)c(F)c2F)sc(C(N)=O)c1C [MMV153413] | 4.50% | 0.97% | 520 nM |  | 
Cc1cc(Cl)ccc1NC(=O)CCc1ccc(S(=O)(=O)NCC(C)C)cc1 [MMV161996] | 75.91% | 98.90% |  |  | 
CNC(=O)C1Cc2ccccc2N1C(=O)Cc1ccc(F)cc1 (stereo not drawn) [MMV188296] | 81.46% | 106.72% |  |  | 
COc1ccc(C2(C(=O)Nc3ccc(Br)cc3)CCCC2)cc1 [MMV200748] | 64.99% | 61.91% |  |  | 
COc1ccc(OC(C)C(=O)Nc2ccc(Cl)cc2C)cc1 (stereo not drawn) [MMV202458] | 83.71% | 79.97% |  |  | 
CCC(=O)Nc1ccccc1C(=O)Nc1ccccn1 [MMV202553] | 76.92% | 77.09% |  |  | 
COc1cccc(NC(=O)c2c(NC(=O)c3cccnc3)sc3c2CCC3)c1 [MMV228911] | 73.96% | 11.53% |  |  | 
COc1cccc(-n2nnnc2S(C)(=O)=O)c1 [MMV272144] | 2.64% | 0.19% | 640 nM |  | 
COc1cccc(-c2cc3c(Nc4cccnc4)nccc3[nH]2)c1 [MMV392832] | 70.60% | 51.50% |  |  | 
CN1CCN(c2nccc3[nH]c(-c4cccc(F)c4)cc23)CC1 [MMV393144] | 92.24% | 81.97% |  |  | 
Cc1cc(=O)[nH]c(-n2nc(C)cc2C)n1 [MMV393995] | 27.43% | 3.00% |  |  | 
CCc1nc2ccc(C(=O)NCc3ccc4c(c3)OCO4)cn2c1N(C)Cc1cccs1 [MMV407539] | 104.77% | 70.84% |  |  | 
CCOc1ccccc1NC(C)C(=O)Nc1cc(C(F)(F)F)ccc1N1CCOCC1 (stereo not drawn) [MMV407834] | 70.36% | 63.07% |  |  | 
COC(=O)c1c(NC(=O)c2c(F)c(F)c(F)c(F)c2F)sc2c1CCCCC2 [MMV461553] | 48.03% | -0.44% |  |  | 
CC(C)(C)c1cnc(NC(=O)c2ccccc2O)s1 [MMV495543] | 70.90% | 27.02% |  |  | 
CS(=O)(=O)Cc1nc2ccccc2oc1=O [MMV553002] | 72.57% | 58.91% |  |  | 
c1ccc(-c2cc(N3CCCCC3)c3ccccc3n2)nc1 [MMV560185] | 64.27% | 94.77% |  |  | 
CCC(Sc1nc2ccccc2o1)C(=O)Nc1nnc(C)s1 (stereo not drawn) [MMV611037] | 55.30% | 44.60% |  |  | 
O=C(NCCN1CCCC1)c1cc(NCCN2CCOCC2)nc2ccc(Cl)cc12 [MMV634140] | 112.61% | 73.96% |  |  | 
CN1CCC[C@@H]1CCO[C@](C)(c1ccccc1)c1ccc(Cl)cc1 [MMV637229, Clemastine, reference compound] |  |  |  | 47.3% | 11.2%
Cc1ccc(C(=O)Nc2ccc(S(=O)(=O)O)c3cc(S(=O)(=O)O)cc(S(=O)(=O)O)c23)cc1NC(=O)c1cccc(NC(=O)Nc2cccc(C(=O)Nc3cc(C(=O)Nc4ccc(S(=O)(=O)O)c5cc(S(=O)(=O)O)cc(S(=O)(=O)O)c45)ccc3C)c2)c1 [MMV637953, Suramin, reference compound] |  |  |  | 105% | 117%
Cc1nc(-c2ccccn2)nc(N(C)CCc2ccccc2)c1Cl [MMV658988] | 32.93% | -2.26% |  |  | 
